Data reported in patent US20070037253A1, “Methods and compositions for treatment of arthritis and cancer” (priority 2003, published 2007).
Where a SMILES comes first, the peptide text is derived from it.

Key:
Type in all cases: biochemical
human recombinant MMP-1 = target: T1, human recombinant MMP-1 (Homo sapiens, UniProt P03956); experiment: MMP-1 colorimetric assay (BIOMOL AK-404 QuantiZyme)
T1 construct: human recombinant MMP-1 catalytic domain in each well (15.3 U, 20 μL); purchased BIOMOL AK-404
T1 sequence (P03956 100-269 limits assumed): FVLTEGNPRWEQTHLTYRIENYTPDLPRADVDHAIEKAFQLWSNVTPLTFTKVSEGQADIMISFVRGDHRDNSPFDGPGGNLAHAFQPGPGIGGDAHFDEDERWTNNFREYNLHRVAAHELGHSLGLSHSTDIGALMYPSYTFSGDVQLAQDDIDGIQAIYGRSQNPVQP
Description: FIG. 3 illustrates the results of an assay on inhibition of human recombinant MMP-1 enzyme activity by various peptide mutants. (A) MMP-1 Activity Curves: The reaction velocity (V) was determined from the slope of the OD versus time (min) plot for each test inhibitor using the linear regression analysis. (∘), Human recombinant MMP-1 purified enzyme; (□), NNGH standard positive control MMP-1 selective inhibitor; (▾), P-NT.II; (▴), D60,65E dimer; (•), PIP [57-67] dimer; (▪), PIP [59-67] dimer. (B) MMP-1 Activity Inhibition Curves: Inhibition curves of various peptide mutants against the human MMP-1 activity. Results are expressed as the mean±SD (n=3).
Inhibition of MMP-1 enzymatic activity: Enzyme inhibition by peptide analogues was assessed by using MMP-1 Colorimetric assay kit for drug discovery (BIOMOL AK-404 QuantiZyme Assay system). Briefly, human recombinant MMP-1 catalytic domain in each well (15.3 U, 20 μL) was allowed to react either with the candidate peptide (test inhibitor) dissolved in DMSO (final 0.5% DMSO in assay buffer), or with the assay buffer alone (control) for 30 min at 37° C. Immediately following incubation, the reaction was initiated by adding the thiopeptide substrate solution in assay buffer (10 μL of 100 μM Ac-PLG-[2-mercapto-4-methyl-pentanoyl]-LG-OC2H5) into each well, and the absorbance at 412 nm continuously monitored for 10 min. 1 mM Ellman's reagent [5,5′-dithiobis (2-nitrobenzoic acid] in assay buffer (50 mM HEPES, 10 mM CaCl2, 0.05% Brij-35) was used as a colour developer in this assay system. The reaction velocity (V) was determined from the slope of the OD versus time (min) plot for each test inhibitor using the linear regression analysis (Graph Pad Prism, Version 2). Inhibition (%) was then calculated using the equation, [100]−[(V inhibitor/control)×100].

[1] = target: T2, purified human synovial sPLA2 (human Type IIA sPLA2) (Homo sapiens, UniProt P14555); experiment: sPLA2 inhibition, 3H-arachidonate-labelled E. coli membrane assay; settings: for inhibition at 5 µM: read-out: % Inhibition (mean ± SD)
T2 construct: purchased Cayman Chemicals, USA
T2 sequence (P14555 21-144): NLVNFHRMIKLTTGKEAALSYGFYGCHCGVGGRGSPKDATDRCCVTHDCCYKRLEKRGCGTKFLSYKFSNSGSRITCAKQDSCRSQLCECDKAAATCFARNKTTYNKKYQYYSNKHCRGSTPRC
Description: In brief, [^3H] arachidonate-labeled E. coli membranes (0.005 mCi/mL; 5.8 μCi/μmol, NEN) were used as substrate, and 100 mM Tris-HCl—25 mM CaCl2, pH 7.5 solution as an assay buffer. The reaction mixture contained 20 μL of substrate, 0.85 pmole of purified human synovial sPLA2 (human Type IIA sPLA2, Cayman Chemicals, USA), and an increasing concentrations of the family of synthetic peptides derived from the sequence of PIP. The final volume of the reaction mixture was adjusted to 250 μL with an assay buffer. After incubation of the mixture (37° C., 1 h) and termination of the reaction with 750 μL of chilled PBS containing 1% BSA, microfuge tubes containing the samples were centrifuged (10,000 g at 4° C. for 15 min), and 500 μL aliquots of the supernatant taken to measure the amount of [^3H]-labeled arachidonate released from the E. coli membrane using liquid scintillation counting (Multipurpose Scintillation Counter LS 6500; Beckman, USA). As controls, sPLA2 was pre-incubated with the assay buffer alone. All samples, including controls, were performed in triplicate and plotted as the percentage inhibition relative to negative controls.
A sigmoid dose response curve was generated to allow calculation of the IC50 values. All samples were performed in triplicate. Results were analyzed by nonlinear regression with GraphPad Prism (version 2.01) and expressed as the percentage of inhibition relative to control values.

collagenase I (MMP-1) = experiment: Collagenase activity assay, collagen thin film (collagen type II substrate); settings: collagen thin film, collagen type II; peptide concentration not given
Description: Collagenase activity was assayed by collagen thin film method using collagen type II as substrate. IC50 values were graphically determined from the inhibition curves, constructed on the basis of the in vitro results of collagenase assays. Results are the mean±SD of 3 separate experiments done in triplicates. (•), P-NT.II; (□), PIP [59-67] dimer; (Δ), PIP [59-67} monomer; (∇), LY 315920.
Collagenase activity assay: Using collagen thin film as the substrate, a quantitative method was established to measure the enzymatic activity of the MMPs (principally collagenase). Collagen type II (Sigma) solution (4 μL, 3 mg/mL in 0.012 N HCl) was added to each well of 96-well plates and precipitated by slowly increasing the pH with 4 μL of H2O and 8 μL of 0.012 N NaOH. The plate was dried at 23° C. for 24 hr, washed with H2O, and dried again at 23° C., resulting in a thin film containing 12 μg of collagen that was tightly bound to the bottom of the wells. Enzymatic reactions of the collagenase I (with and without peptide inhibitors) against the collagen films were carried out in quadruplicate at 24° C. for 16 h. The digested portion of the film was washed away, while the undigested portion was fixed for 3 h with 0.1% Coomassie brilliant blue R in 10% acetic acid and 45% methanol, and the wells washed and dried.

[2] = fixed peptide concentration (5 μM), 3H-labelled E. coli membrane assay

Compound | inhibition at 5 µM [1, 2] | Collagenase (% Inhibition) (collagenase I (MMP-1)) | other results
CC[C@H](C)[C@H](NC(=O)[C@H](CCC(=O)O)NC(=O)[C@@H](N)C(C)C)C(=O)N[C@@H](Cc1c[nH]cn1)C(=O)N[C@H](C(=O)N[C@@H](Cc1c[nH]c2ccccc12)C(=O)N[C@@H](CCC(=O)O)C(=O)NCC(=O)N[C@H](C(=O)N[C@H](C(=O)N[C@@H](CCC(=O)O)C(=O)N[C@H](C(=O)N[C@@H](Cc1c[nH]cn1)C(=O)N[C@H](C(=O)N[C@@H](Cc1c[nH]c2ccccc12)C(=O)N[C@@H](CCC(=O)O)C(=O)NCC(=O)N[C@H](C(=O)O)C(C)C)C(C)C)[C@@H](C)CC)C(C)C)C(C)C)C(C)C [D60,65E-PIP [59-67] dimer] (H-VEIHVWEGVVEIHVWEGV-OH; N-terminus and C-terminus assumed) | 68.5 ± 3.94% |  | IC50 (human recombinant MMP-1): 3740 nM; IC50 [1]: 4230 ± 670 nM
CC[C@H](C)[C@H](NC(=O)[C@H](CCC(=O)O)NC(=O)[C@@H](N)C(C)C)C(=O)N[C@@H](Cc1c[nH]cn1)C(=O)N[C@H](C(=O)N[C@@H](Cc1c[nH]c2ccccc12)C(=O)N[C@@H](CCC(=O)O)C(=O)NCC(=O)N[C@H](C(=O)O)C(C)C)C(C)C [D60,65E-PIP [59-67]] (H-VEIHVWEGV-OH; N-terminus and C-terminus assumed) | 61.4 ± 4.32% | 5.4 ± 1.8% | 
CC[C@H](C)[C@H](NC(=O)[C@H](CC(=O)O)NC(=O)[C@@H](N)C(C)C)C(=O)N[C@@H](Cc1c[nH]cn1)C(=O)N[C@H](C(=O)N[C@@H](Cc1c[nH]c2ccccc12)C(=O)N[C@@H](C)C(=O)NCC(=O)N[C@H](C(=O)O)C(C)C)C(C)C [D65A-PIP [59-67], VDIHVW (A) GV] (H-VDIHVWAGV-OH; N-terminus and C-terminus assumed) | 48.5 ± 2.34% |  | 
CC[C@H](C)[C@H](NC(=O)[C@H](CC(=O)O)NC(=O)[C@@H](N)C(C)C)C(=O)N[C@@H](Cc1c[nH]cn1)C(=O)N[C@H](C(=O)N[C@@H](Cc1c[nH]c2ccccc12)C(=O)N[C@@H](CCC(=O)O)C(=O)NCC(=O)N[C@H](C(=O)O)C(C)C)C(C)C [D65E-PIP [59-67], VDIHVW (E) GV] (H-VDIHVWEGV-OH; N-terminus and C-terminus assumed) | 57.6 ± 3.22% |  | 
CC[C@H](C)[C@H](NC(=O)[C@H](CC(=O)O)NC(=O)[C@@H](N)C(C)C)C(=O)N[C@@H](Cc1c[nH]cn1)C(=O)N[C@H](C(=O)N[C@@H](Cc1c[nH]c2ccccc12)C(=O)N[C@@H](CO)C(=O)NCC(=O)N[C@H](C(=O)O)C(C)C)C(C)C [D655-PIP [59-67], VDIHVW (S) GV] (H-VDIHVWSGV-OH; N-terminus and C-terminus assumed) | 52.5 ± 1.08% |  | 
CC[C@H](C)[C@H](NC(=O)[C@H](Cc1ccc(O)cc1)NC(=O)[C@@H](NC(=O)CNC(=O)[C@H](CC(=O)O)NC(=O)[C@H](Cc1c[nH]c2ccccc12)NC(=O)[C@@H](NC(=O)[C@H](Cc1cnc[nH]1)NC(=O)[C@@H](NC(=O)[C@H](CC(=O)O)NC(=O)[C@@H](NC(=O)[C@H](CCCNC(=N)N)NC(=O)CNC(=O)[C@@H](N)CC(C)C)C(C)C)[C@@H](C)CC)C(C)C)C(C)C)C(=O)N[C@@H](CCCNC(=N)N)C(=O)NCC(=O)N[C@@H](CCCNC(=N)N)C(=O)O [P-NT.II] (H-LGRVDIHVWDGVYIRGR-OH) |  |  | IC50 (human recombinant MMP-1): 1550 nM
CC[C@H](C)[C@H](NC(=O)[C@H](CC(=O)O)NC(=O)[C@@H](NC(=O)[C@H](CCCNC(=N)N)NC(=O)CN)C(C)C)C(=O)N[C@@H](Cc1c[nH]cn1)C(=O)N[C@H](C(=O)N[C@@H](Cc1c[nH]c2ccccc12)C(=O)N[C@@H](CC(=O)O)C(=O)NCC(=O)N[C@H](C(=O)NCC(=O)N[C@@H](CCCNC(=N)N)C(=O)N[C@H](C(=O)N[C@@H](CC(=O)O)C(=O)N[C@H](C(=O)N[C@@H](Cc1c[nH]cn1)C(=O)N[C@H](C(=O)N[C@@H](Cc1c[nH]c2ccccc12)C(=O)N[C@@H](CC(=O)O)C(=O)NCC(=O)N[C@H](C(=O)O)C(C)C)C(C)C)[C@@H](C)CC)C(C)C)C(C)C)C(C)C [PIP [57-67] dimer] (H-GRVDIHVWDGVGRVDIHVWDGV-OH; N-terminus and C-terminus assumed) | 76.4 ± 3.87% |  | IC50 (human recombinant MMP-1): 970 nM; IC50 [1]: 2430 ± 760 nM
CC[C@H](C)[C@H](NC(=O)[C@H](CC(=O)O)NC(=O)[C@@H](NC(=O)[C@@H](N)CCCNC(=N)N)C(C)C)C(=O)N[C@@H](Cc1c[nH]cn1)C(=O)N[C@H](C(=O)N[C@@H](Cc1c[nH]c2ccccc12)C(=O)N[C@@H](CC(=O)O)C(=O)NCC(=O)N[C@H](C(=O)O)C(C)C)C(C)C [PIP [58-67]] (H-RVDIHVWDGV-OH) |  | 29.4 ± 6.0% | 
CC[C@H](C)[C@H](NC(=O)[C@H](CC(=O)O)NC(=O)[C@@H](N)C(C)C)C(=O)N[C@@H](Cc1cnc[nH]1)C(=O)N[C@H](C(=O)N[C@@H](Cc1c[nH]c2ccccc12)C(=O)N[C@@H](CC(=O)O)C(=O)NCC(=O)N[C@H](C(=O)N[C@H](C(=O)N[C@@H](CC(=O)O)C(=O)N[C@H](C(=O)N[C@@H](Cc1cnc[nH]1)C(=O)N[C@H](C(=O)N[C@@H](Cc1c[nH]c2ccccc12)C(=O)N[C@@H](CC(=O)O)C(=O)NCC(=O)N[C@H](C(=O)O)C(C)C)C(C)C)[C@@H](C)CC)C(C)C)C(C)C)C(C)C [PIP [59-67] dimer] (H-VDIHVWDGVVDIHVWDGV-OH) |  |  | IC50 (human recombinant MMP-1): 902 nM
DIHVWDG [PIP [60-66], P-NT.II analogue] |  | 4.7 ± 2.6% | 
GRVDIHVWDGV [PIP [57-67], P-NT.II analogue] |  | 65.1 ± 3.3% | 
GRVDIHVWDGVYIRGR [PIP [57-72], P-NT.II analogue] |  | 39.8 ± 3.5% | 
LGRVDIHVWDGVY [PIP [56-68], P-NT.II analogue] |  | 61.6 ± 7.6% | 
LGRVDIHVWDGVYI [PIP [56-69], P-NT.II analogue] |  | 59.8 ± 6.2% | 
LGRVDIHVWDGVYIR [PIP [56-70], P-NT.II analogue] |  | 60.6 ± 4.5% | 
LGRVDIHVWDGVYIRG [PIP [56-71], P-NT.II analogue] |  | 62.8 ± 6.6% | 
RVDIHVWDGVYIRGR [PIP [58-72], P-NT.II analogue] |  | 23.3 ± 2.9% | 
VDIHVW (βD) GV [β-Asp65-PIP [59-67]] |  |  | % Inhibition (mean ± SD) [1, 2]: 49.71 ± 3.01%
VDIHVWDGVYIRGR [PIP [59-72], P-NT.II analogue] |  | 14.5 ± 2.4% | 
